Values joined by “and” are separate entries in the source; they are usually repeats but may differ in a detail not shown here. Equal values may be shown once. Read-outs that look alike come from different tables or passages of the source.
Columns and labels:
[1] = In vitro hepatic clearance by human liver S9 (compound depletion); assay type: in vitro ADME; settings: for Predicted intrinsic hepatic metabolic clearance CLmet: CLint,u scaled to a whole liver, 121 mg HLS9/g liver; for Predicted intrinsic hepatic metabolic clearance CLmet / k el at 1 µM / microsomal CLint at 1 µM: human; for metabolism in incubations without co-factor mix: HLS9 without co-factor mix; for k el at 1 µM: pH 7.4
Experimental: In vitro intrinsic hepatic clearance (CLint) values of the phenethylamine analogues were determined in experiments with pooled human liver S9 (HLS9; Corning, Woburn, MA, USA and Gibco, USA), by measuring the rate of compound depletion. Stocks of 1 mM PEA compounds were prepared in DMSO and stocks of 10 mg/mL alamethicin were prepared in methanol. The final incubation mixtures consisted of 1 µM of PEA compound (0.1% DMSO) in 100 mM potassium phosphate buffer with 5 mM magnesium chloride (pH 7.4) supplemented with 0.025 mg/mL alamethicin (0.25% methanol) and 0.1–2 mg/mL HLS9. […] Incubation mixtures were first pre-incubated at 37 °C in a shaking incubator at 300 rpm for 5 min. After 5 min, the reaction was initiated by adding a co-factor mix in supplemented buffer with final concentrations of 3 mM nicotinamide adenine dinucleotide phosphate (NADPH; for oxidation, reduction and hydrolysis), 5 mM uridine diphosphate glucuronic acid (UDPGA; for glucuronidation), 0.2 mM adenosine 3’-phosphate 5’-phosphosulfate lithium salt hydrate (PAPS; for sulfation) and 0.2 mM S-(5’-Adenosyl)-L-methionine p-toluenesulfonate salt (SAM; for methylation). The final incubation volume was 100 µL and incubations were performed in 1.5 mL Safe-Lock Eppendorf tubes (Eppendorf) in a shaking incubator (300 rpm) at 37 °C (Eppendorf Thermomixer). Incubations were terminated by adding 100 µL ice-cold acetonitrile after, 0, 2.5, 5, 10, 20, 40 and 60 min. Then, samples were vortexed, put on ice and stored at -20 °C until the day of the LC–MS/MS analysis. Controls of incubation mixtures without HLS9 or mixtures without co-factors were also included. Two independent experiments, both in duplicate, were performed on different days. On the day of the LC–MS/MS analysis, samples were thawed and centrifuged at 15,000 rpm for 10 min. The supernatant was collected in glass insert vials for LC injection (BGB Analytik, Harderwijk, The Netherlands). Details on the methods of the LC–MS/MS analysis are described in Sect. "LC–MS/MS analysis". After determining the PEA (analogue) amount at the different time points, the CLint was calculated. The natural logarithm of compound concentrations was plotted against time and the slope of this curve represented the elimination rate constant k (in 1/min). The half-life (t1/2 in minutes) was calculated by: ln (2)/k (in 1/min). The volume of incubation (V) in µL/mg protein was determined by: 1000 / HLS9 concentration (in mg/mL). Finally, CLint could be calculated by: CLintμL/min/mg protein=VμL/mg protein∗ln2/t1/2min.
The fraction unbound in these in vitro liver clearance incubations was calculated with the method of (Hallifax and Houston [2006]) in which unspecific binding in HLS9 incubations was assumed to be the same as in liver microsomal incubations. The in vitro obtained HLS9 CLint values were corrected for protein binding in the HLS9 incubation and were scaled to a whole liver by using a scaling factor of 121 mg HLS9/g liver (Houston and Galetin [2008]).

ADRα2A = assay: PBK modelling-based reverse dosimetry of in vitro EC50 to ED50, ADRα2A; settings: predicted human oral ED50 from in vitro EC50 (Pinckaers et al. [2024]) and modelled Cmax plasma venous
From the text: (§1) The in vitro effect concentrations (EC50), for activation of the α1A, α1B, α1D, α2A, α2B, β1 and β2 ADR activation and the activation of TAAR1, were obtained from our previous study (Pinckaers et al. [2024]).

TAAR1 = assay: PBK modelling-based reverse dosimetry of in vitro EC50 to ED50, TAAR1; set-up: species or system human; settings: for TAAR1 ED50: predicted human oral ED50 from in vitro EC50 (Pinckaers et al. [2024]) and modelled Cmax plasma venous; for dose needed to reach internal effect concentrations, times lower than the dose of higenamine: TAAR1, Fig. 6F
From the text: as §1

[2] = Generic human PBK model with oral dosing, simulated venous plasma concentration; settings: oral dose of 5.7 mg/kg bw, observed data of Rafehi et al. [2019]
From the text: The PBK model codes used in this study are presented in the Supplementary data. For the prediction of internal concentrations of the PEA analogues a generic PBK model for humans with oral dosing was used. The PBK model code was adopted from (Jones and Rowland-Yeo [2013]). In general, the body compartments described in the model are: adipose, bone, brain, gut, heart, kidney, liver, lung, muscle, skin, spleen, testes, venous, arterial, plasma and a rest compartment. The concentrations in these compartments were modelled as blood-flow limited, in which it is assumed that the total concentration in the tissue is in equilibrium with the concentration in the systemic circulation at a steady state. The concentration in the circulation is compound-specific and is based on the plasma partition coefficients. The blood flow rate, the tissue volume and the plasma partition coefficients determine the rate of reaching the steady-state (Jones and Rowland-Yeo [2013]). The model was converted to RStudio (version 2023.12.1 Build 402, “Ocean Storm Release”) solving the differential equations with the R rxode2 package (with tidyverse packages). Cliver free was defined as Cliver/Kp liver * Fup instead of Cliver* Fup. […]

[3] = human; ref Faraj et al. [1979]; cited from earlier work
ADRβ1 = tested on: ADRβ1; set-up: method as in Pinckaers et al. [2024]; settings: in vitro ADRβ1 activation assays, Fig. 6E; ref Pinckaers et al. [2024]; cited from earlier work
[4] = human, t = 0.70 h, escalating intravenous infusion 0.5, 1, 2, 4 µg/kg bw/min, 3 min each; ref Feng et al. [2012]; cited from earlier work
[5] = full reaction mix (HLS9 and co-factor mix), 1 µM, HLS9 concentration per compound (0.10-2 mg/mL), read-out: elimination rate constant k (converted)
[6] = s9, pH 7.4, CLint app corrected for unspecific protein (HLS9) binding, read-out: In vitro CLint,u
[7] = s9, pH 7.4, human liver S9 with co-factor mix (NADPH, UDPGA, PAPS, SAM), 1 µM, read-out: In vitro CLint app

| Structure (SMILES) | Predicted intrinsic hepatic metabolic clearance CLmet [1] | metabolism in incubations without co-factor mix [1] | k el at 1 µM [1, 5] | microsomal CLint at 1 µM [1, 6] | microsomal CLint at 1 µM [1, 7] | ADRα2A ED50 (ADRα2A) | TAAR1 ED50 (TAAR1) | over-prediction of the Cmax plasma compared to the observed average [2] | metabolic clearance observed in humans [3] | k el at 1 µM [1] | dose needed to reach internal effect concentrations, times lower than the dose of higenamine (TAAR1) | in vitro potency, times more potent than isopropyloctopamine (ADRβ1) | observed average plasma concentration [4] |
| --- | --- | --- | --- | --- | --- | --- | --- | --- | --- | --- | --- | --- | --- |
| NCCc1ccccc1 [Phenethylamine, phenethylamine] | 2598 L/h | metabolized in incubations without co-factor mix | 0.000402 s⁻¹ | 243 µL/min/mg | 241 µL/min/mg | – (compounds with a dash (-) did not activate the receptors in vitro at concentrations ≤ 300 µM) | 67.7 mg/kg bw |  |  |  |  |  |  |
| CN(C)CCc1ccc(O)cc1 [Hordenine, hordenine] | 27.0 L/h |  | 7.33e-05 s⁻¹ | 2.53 µL/min/mg | 2.2 µL/min/mg | 234 mg/kg bw | 15.9 mg/kg bw |  |  |  |  |  |  |
| CNCC(O)c1ccc(O)cc1 (stereo not drawn) [p-Synephrine, Synephrine] | 140 L/h | metabolized in incubations without co-factor mix | 0.000198 s⁻¹ | 13.1 µL/min/mg | 11.9 µL/min/mg | 139 mg/kg bw | 127 mg/kg bw |  |  |  |  |  |  |
| CNC(C)C(O)c1ccc(O)cc1 (stereo not drawn) [Methylsynephrine] | 19.7 L/h |  | 4.97e-05 s⁻¹ | 1.84 µL/min/mg | 1.49 µL/min/mg | – (compounds with a dash (-) did not activate the receptors in vitro at concentrations ≤ 300 µM) | – (compounds with a dash (-) did not activate the receptors in vitro at concentrations ≤ 300 µM) |  |  |  |  |  |  |
| NCCc1ccc(O)cc1 [Tyramine, tyramine] | 841 L/h | metabolized in incubations without co-factor mix | 0.000322 s⁻¹ | 78.8 µL/min/mg | 77.2 µL/min/mg | – (compounds with a dash (-) did not activate the receptors in vitro at concentrations ≤ 300 µM) | 34.7 mg/kg bw | 3.78 fold | 792 L/h |  |  |  |  |
| CC(C)NCC(O)c1ccc(O)cc1 (stereo not drawn) [Isopropyloctopamine, isopropyloctopamine] | 27.3 L/h |  |  | 2.56 µL/min/mg | 2.15 µL/min/mg | – (compounds with a dash (-) did not activate the receptors in vitro at concentrations ≤ 300 µM) | 1.26 mg/kg bw |  |  | 7.17e-05 s⁻¹ | 4.8 times |  |  |
| CN(C)CCc1ccccc1 [Dimethylphenethylamine, N,N-dimethylphenethylamine] | 245 L/h | metabolized in incubations without co-factor mix | 0.000667 s⁻¹ | 23 µL/min/mg | 20 µL/min/mg | – (compounds with a dash (-) did not activate the receptors in vitro at concentrations ≤ 300 µM) | 14.0 mg/kg bw |  |  |  |  |  |  |
| CNCC(O)c1ccccc1 (stereo not drawn) [Halostachine, halostachine] | 416 L/h | metabolized in incubations without co-factor mix | 0.000312 s⁻¹ | 39 µL/min/mg | 37.4 µL/min/mg | – (compounds with a dash (-) did not activate the receptors in vitro at concentrations ≤ 300 µM) | 88.9 mg/kg bw |  |  |  |  |  |  |
| Oc1ccc(CC2NCCc3cc(O)c(O)cc32)cc1 (stereo not drawn) [Higenamine, higenamine] | 261 L/h |  | 0.000367 s⁻¹ | 24.4 µL/min/mg | 22 µL/min/mg | – (compounds with a dash (-) did not activate the receptors in vitro at concentrations ≤ 300 µM) | 6.09 mg/kg bw |  |  |  |  | 3.5 times | 0.5 ng/mL |
| CC(CN)c1ccccc1 (stereo not drawn) [β-Methylphenethylamine, β-methylphenethylamine] | 139 L/h | metabolized in incubations without co-factor mix | 0.000403 s⁻¹ | 13 µL/min/mg | 12.1 µL/min/mg | – (compounds with a dash (-) did not activate the receptors in vitro at concentrations ≤ 300 µM) | 0.995 mg/kg bw and 0.955 mg/kg bw |  |  |  | 6.4 times |  |  |
